These results are taken from PubChem BioAssay (NCI).

Where “and” joins values, the source holds several entries; their conditions need not be identical. Equal entries are not always repeated.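 Dose response: 5 concentrations. Exposure: 48 h. Format: 96-well plates. Endpoint: linear interpolation; highest concentration if not reached. Abbreviation: GI50, concentration required for 50% inhibition of growth. TGI denotes the concentration required for complete inhibition of growth.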 Some results are limits rather than exact numbers.

Among the test systems are MDA-MB-231 breast; DU-145 prostate; HCT-116 colon; 786-0 renal; SNB-75 CNS; SK-MEL-5 melanoma; NCI/ADR-RES ovarian; K-562 leukemia; HCT-15 colon; UACC-62 melanoma.
Common to all, as to assay: NCI tumour cell line growth inhibition, 48 h

For the compound `CN(Cc1cccc(Cl)c1)c1ccc(CO)c(Cl)c1`, the GI50 was 17.4 µM in the assay with MDA-MB-231 breast; 21 µM in the assay with DU-145 prostate; 0.481 µM in the assay with HCT-116 colon; 12.4 µM with 786-0 renal; 14.7 µM in the assay with SNB-75 CNS; 7.47 µM in the assay on SK-MEL-5 melanoma. Also, the GI50 in the assay with NCI/ADR-RES ovarian was 14.6 µM; in the assay on K-562 leukemia, 8.76 µM; in the assay on HCT-15 colon, 16.1 µM; in the assay on UACC-62 melanoma, 0.321 µM. Further, the TGI in the assay on MDA-MB-231 breast was 59.9 µM; in the assay on DU-145 prostate it was > 51.1 µM; with HCT-116 colon, 11.3 µM; with 786-0 renal, 27.2 µM; with SNB-75 CNS, 49.7 µM; in the assay on SK-MEL-5 melanoma, 20.7 µM. Moreover, the TGI in the assay on NCI/ADR-RES ovarian was 44.1 µM; in the assay with K-562 leukemia, > 100 µM; with HCT-15 colon, > 76.7 µM; in the assay with UACC-62 melanoma, 3.75 µM.
Take `Nc1c2c(c(O)c3c1=C(CO)C=N3)=NCCS2=O` (configuration not stated): the GI50 in the assay on MDA-MB-231 breast is 2.82 µM; in the assay on DU-145 prostate it was 1.54 µM; in the assay with HCT-116 colon it was 2.25 µM; in the assay on 786-0 renal it was 1.98 µM; with SNB-75 CNS, 1.74 µM; in the assay on SK-MEL-5 melanoma, 1.13 µM. Besides, the GI50 in the assay with NCI/ADR-RES ovarian was 2.51 µM; with K-562 leukemia it was 2.81 µM; in the assay on HCT-15 colon, 2.99 µM; in the assay on UACC-62 melanoma, 1.71 µM. The TGI with MDA-MB-231 breast amounted to 9.69 µM; in the assay on DU-145 prostate it was 2.87 µM; with HCT-116 colon, 4.95 µM; in the assay with 786-0 renal, 4.52 µM; with SNB-75 CNS, 3.18 µM; in the assay on SK-MEL-5 melanoma, 2.36 µM. Moreover, the TGI worked out at 8.99 µM with NCI/ADR-RES ovarian, 8.07 µM with K-562 leukemia, 10.6 µM with HCT-15 colon and 3.39 µM in the assay with UACC-62 melanoma.
Turning to `COc1ccc(-n2cc(-c3ccc(F)cc3)[nH]c2=O)cc1OC`, the GI50 with MDA-MB-231 breast, with DU-145 prostate, in the assay with HCT-116 colon, in the assay with 786-0 renal, in the assay with SNB-75 CNS and in the assay on SK-MEL-5 melanoma was > 100 µM throughout. Further, the GI50 with NCI/ADR-RES ovarian was > 100 µM; with K-562 leukemia it was 7.5 µM; with HCT-15 colon, > 100 µM; in the assay on UACC-62 melanoma, > 100 µM. In addition, the TGI in the assay with MDA-MB-231 breast, with DU-145 prostate, in the assay on HCT-116 colon, in the assay on 786-0 renal, in the assay with SNB-75 CNS and in the assay on SK-MEL-5 melanoma was > 100 µM each time. Moreover, the TGI with NCI/ADR-RES ovarian, with K-562 leukemia, in the assay with HCT-15 colon and in the assay with UACC-62 melanoma was > 100 µM each time.
For the compound `CC/C(=C(/c1ccc(Cl)cc1)c1ccc(OCCCN(C)C)cc1)c1ccc(OC)cc1`, the GI50 with MDA-MB-231 breast is 1.3 µM; in the assay on DU-145 prostate it was 3.48 µM; in the assay with HCT-116 colon, 0.86 µM; in the assay on 786-0 renal, 0.771 µM; in the assay on SNB-75 CNS it was 6.02 µM; with NCI/ADR-RES ovarian, 7.27 µM. Moreover, the GI50 was 1.06 µM in the assay with K-562 leukemia, 1.44 µM in the assay on HCT-15 colon and 1.14 µM in the assay on UACC-62 melanoma. Besides, the TGI was determined as 3.29 µM with MDA-MB-231 breast; 10.1 µM with DU-145 prostate; 1.57 µM in the assay with HCT-116 colon; 1.46 µM in the assay on 786-0 renal; 12.3 µM in the assay with SNB-75 CNS; 16.3 µM in the assay with NCI/ADR-RES ovarian. Besides, the TGI in the assay with K-562 leukemia was determined as 2.57 µM; with HCT-15 colon it was 5.08 µM; in the assay on UACC-62 melanoma it was 2.5 µM.
As for `Cc1cnc2n(c1=O)Cc1ccccc1CO2`, the GI50 is 11.8 µM in the assay with MDA-MB-231 breast; 16.6 µM in the assay with DU-145 prostate; 17.2 µM in the assay on HCT-116 colon; 18.8 µM with 786-0 renal; 25.3 µM in the assay on SNB-75 CNS; 15.4 µM with SK-MEL-5 melanoma. Besides, the GI50 in the assay with NCI/ADR-RES ovarian is 22.7 µM; with K-562 leukemia, 18.7 µM; in the assay with HCT-15 colon it was 17.1 µM; in the assay on UACC-62 melanoma, 14.7 µM. Moreover, the TGI is 32 µM in the assay on MDA-MB-231 breast; 32.1 µM in the assay on DU-145 prostate; 43.8 µM with HCT-116 colon; 39.4 µM in the assay with 786-0 renal; > 64 µM with SNB-75 CNS; 29.5 µM in the assay with SK-MEL-5 melanoma. Further, the TGI in the assay on NCI/ADR-RES ovarian is 71.4 µM; in the assay on K-562 leukemia, 48.3 µM; in the assay on HCT-15 colon, 33.8 µM; in the assay with UACC-62 melanoma, 28.7 µM.
Turning to `CN(CC(=O)O)Cc1c[nH]c2ccccc12`, the TGI in the assay on MDA-MB-231 breast, in the assay with DU-145 prostate, in the assay with HCT-116 colon, in the assay on 786-0 renal, with SNB-75 CNS and in the assay with SK-MEL-5 melanoma was > 100 µM each time. For the same compound, the TGI in the assay on NCI/ADR-RES ovarian, in the assay with K-562 leukemia, with HCT-15 colon and with UACC-62 melanoma was > 100 µM in each case.
With `Nc1c(C(=O)Nc2cccc3ccccc23)sc2nc3c(cc12)CCCCCC3`, the GI50 is 2.75 µM in the assay on MDA-MB-231 breast; 2.05 µM in the assay on DU-145 prostate; 1.72 µM with HCT-116 colon; 2.13 µM in the assay on 786-0 renal; 1.24 µM with SNB-75 CNS; 0.929 µM in the assay on SK-MEL-5 melanoma. Moreover, the GI50 in the assay with NCI/ADR-RES ovarian is 0.784 µM; in the assay on K-562 leukemia, 0.301 µM; in the assay on HCT-15 colon it was 0.772 µM; with UACC-62 melanoma, 1.62 µM. The TGI in the assay on MDA-MB-231 breast is > 50 µM; in the assay with DU-145 prostate it was > 50 µM; in the assay with HCT-116 colon it was > 50 µM; in the assay with 786-0 renal, > 50 µM; with SNB-75 CNS, > 50 µM; in the assay with SK-MEL-5 melanoma it was 6.85 µM. Further, the TGI in the assay on NCI/ADR-RES ovarian, in the assay with K-562 leukemia, in the assay with HCT-15 colon and in the assay on UACC-62 melanoma was > 50 µM each time.
In the case of `COc1nc(C(Cl)(Cl)Cl)c(Cl)c(OC)c1Cl`, the TGI in the assay with MDA-MB-231 breast was 72.5 µM; in the assay with DU-145 prostate it was 73.2 µM; in the assay with HCT-116 colon, > 57.8 µM and 78.3 µM; with 786-0 renal it was > 55.3 µM and 18.8 µM; with SNB-75 CNS, 55.6 µM; in the assay on SK-MEL-5 melanoma, 34.5 µM and 83.2 µM. Besides, the TGI is 58.4 µM with NCI/ADR-RES ovarian; > 63.4 µM and 94.2 µM in the assay on K-562 leukemia; 75.6 µM in the assay on HCT-15 colon; > 88.8 µM and 54.5 µM in the assay on UACC-62 melanoma. Further, the GI50 with 786-0 renal is > 41.1 µM; in the assay with SK-MEL-5 melanoma, 19.6 µM; in the assay on K-562 leukemia, > 42.6 µM; with UACC-62 melanoma it was > 50.4 µM.
